In patent EP2292624A1, “Process for the purification of olanzapine” (LEK Pharmaceuticals d.d., priority 2009, dated 2011):
Structures can show the parent of a compound that is named as a salt.

Details: water; printed as 'approximately up to about'

## Cc1cc2c(s1)Nc1ccccc1N=C2N1CCN(C)CC1 [oxalic acid addition salt of olanzapine]
  aqueous solubility: up to 800 mg/mL
